Experiment: Inhibition of p38 MAPK

IC50 | SMILES
14 nM | COc1ccc(C#CC(C)(C)N)cc1C(=O)c1ccc(Nc2ccc(F)cc2F)cc1
200 nM | CCN(CC)CCCn1ccc2cc(C(=O)N3CCC(Cc4ccccc4)CC3)c(Cl)cc21
1300 nM | COc1cc2[nH]ccc2cc1C(=O)N1C[C@H](C)N(Cc2ccccc2)C[C@H]1C
990 nM | Nc1ccn2c(-c3ccncn3)c(-c3ccccc3)nc2n1
140 nM | Cc1ccccc1-c1nc(N(C(N)=O)c2c(F)cccc2F)c2ncn(C)c2n1
6 nM | Nc1ccn2c(-c3ccnc(NCc4ccccc4)c3)c(-c3ccc(F)cc3)nc2n1
110 nM | Cc1ccccc1Sc1ccc2c(n1)CNC(=O)N2c1c(Cl)cccc1Cl
40 nM | Cc1ccc(NC(=O)c2ccnc(N3CCOCC3)c2)cc1Nc1ccnc(OC2CCN(C)CC2)n1
6600 nM | O=C(c1ccc2[nH]cc(CN3CCOCC3)c2c1)N1CCC(Cc2ccccc2)CC1
470 nM | Nc1nc(N)c(F)c(-c2nc(-c3cccc(C(F)(F)F)c3)c(-c3ccncc3)[nH]2)c1F
49 nM | O=c1ccc(-c2c(-c3ccc(F)cc3)nc3ccccn23)nn1-c1c(Cl)cccc1Cl
2 nM | COC[C@H](C)Nc1cc(-c2c(-c3ccccc3)nc3nc(N)ccn23)ccn1
4700 nM | O=C(c1cccc2[nH]ccc12)N1CCN(Cc2ccccc2)CC1
8 nM | Cc1ccccc1N1N=C(c2c(-c3ccc(F)cc3F)nc3ccccn23)CCC1=O
0.6 nM | O=C1NCc2c(-c3ccc(F)cc3Cl)cc(C3CCN(CC4CCC4)CC3)cc2N1c1c(Cl)cccc1Cl
270 nM | O=C1NCc2nc(Sc3ccccc3)ccc2N1c1c(Cl)cccc1Cl
0.2 nM | CC(C)(C)N1CCC(c2cc(-c3ccc(F)cc3Cl)c3c(c2)N(c2c(Cl)cccc2Cl)C(=O)NC3)CC1
0.5 nM | O=C1NCc2c(-c3ccc(F)cc3Cl)cc(C3CCN(CC4CC4)CC3)cc2N1c1c(Cl)cccc1Cl
8 nM | O=C1CCC(c2c(-c3ccc(F)cc3F)nc3ccccn23)=NN1c1c(Cl)cccc1Cl
22 nM | Fc1ccc(-c2[nH]c3ccc4[nH]c(Cc5ccccc5)nc4c3c2-c2ccncc2)cc1
170 nM | O=C1CCC(c2c(-c3cccc(C(F)(F)F)c3)nc3ccccn23)=NN1c1ccccc1Cl

From ChEMBL document CHEMBL1154481, “Pharmacophore modeling of diverse classes of p38 MAP kinase inhibitors” (Eur J Med Chem, 2008)
